Data reported in ChEMBL document CHEMBL4765305, “Elephantopinolide A-P, germacrane-type sesquiterpene lactones from Elephantopus scaber induce apoptosis, autophagy and G2/M phase arrest in hepatocellular carcinoma cells” (Eur J Med Chem, 2020).
Activity calls are given as the source filed them. No cut-off for these calls is given here.

What was measured:
[1] = test system: HepG2; test: Activation of JNK phosphorylation in human HepG2 cells by Western blot analysis; assay type: cell-based; details: filed as activator, dose 3-9 µM
[2] = test system: HepG2; test: Induction of apoptosis in human HepG2 cells assessed as increase in caspase-3 activity measured after 2 hrs by microplate reader; assay type: functional, cell-based; details: dose 3-9 µM
[3] = test system: HepG2; test: Induction of apoptosis in human HepG2 cells assessed as decrease in PARP level at 3 to 9 uM measured by western blot analysis; assay type: functional, cell-based; details: dose 3-9 µM
[4] = test system: HepG2; test: Anti-hepatoma activity against human HepG2 cells assessed as cell growth inhibition by MTT assay; assay type: functional, cell-based
[5] = test system: HepG2; test: Induction ROS generation in human HepG2 cells assessed as intracellular ROS level measured after 30 mins by H2DCF-DA probe based flow cytometry (reference value: 5.05%); assay type: functional; details: 0.5 h
[6] = test system: HepG2; test: Induction ROS generation in human HepG2 cells assessed as intracellular ROS level measured after 15 mins by H2DCF-DA probe based flow cytometry (reference value: 5.05%); assay type: functional; details: 0.25 h
[7] = test system: Hep 3B2; test: Induction of cell cycle arrest in human Hep3B cells assessed as accumulation at G2/M phase by PI-staining based flow cytometric analysis; assay type: functional
[8] = test system: Hep 3B2; test: Induction ROS generation in human Hep3B cells assessed as intracellular ROS level measured after 15 mins by H2DCF-DA probe based flow cytometry (reference value: 4.24 %); assay type: functional; details: 0.25 h
[9] = test system: HepG2; test: Induction ROS generation in human HepG2 cells assessed as intracellular ROS level measured after 4 hrs by H2DCF-DA probe based flow cytometry (reference value: 5.05%); assay type: functional
[10] = test system: Hep 3B2; test: Induction of apoptosis in human Hep3B cells assessed as increase in caspase-3 activity measured after 2 hrs by microplate reader; assay type: functional, cell-based; details: dose 3-9 µM
[11] = test system: HepG2; test: Induction of apoptosis in human HepG2 cells assessed as cell shrinkage upto 9 uM incubated for 48 hrs by phase contrast microscopy; assay type: functional, cell-based; details: dose microM <=9, time 48.0 hrs
[12] = test system: Hep 3B2; test: Induction ROS generation in human Hep3B cells assessed as intracellular ROS level measured after 4 hrs by H2DCF-DA probe based flow cytometry (reference value: 4.24 %); assay type: functional
[13] = test system: HepG2; test: Induction of autophagy in human HepG2 cells at 6 uM by MDC staining based flow cytometry analysis (reference value: 4.46%); assay type: functional
[14] = test system: HepG2; test: Induction of mitochondrial membrane potential loss in human HepG2 cells measured after 48 hrs by JC-1 staining based flow cytometry analysis; assay type: functional, cell-based; details: dose 3-9 µM
[15] = test system: HepG2; test: Activation of ERK phosphorylation in human HepG2 cells by Western blot analysis; assay type: cell-based; details: filed as activator, dose 3-9 µM
[16] = test system: Hep 3B2; test: Induction of apoptosis in human Hep3B cells assessed as nuclear condensation at 3 to 9 uM incubated for 48 hrs by Hoechst 33258 staining based fluorescence microscopy analysis; assay type: functional, cell-based; details: dose 3-9 µM
[17] = test system: Hep 3B2; test: Induction ROS generation in human Hep3B cells assessed as intracellular ROS level measured after 30 mins by H2DCF-DA probe based flow cytometry (reference value: 4.24 %); assay type: functional; details: 0.5 h
[18] = test system: HepG2; test: Induction of autophagy in human HepG2 cells at 9 uM by MDC staining based flow cytometry analysis (reference value: 4.46%); assay type: functional
[19] = test system: HepG2; test: Induction of apoptosis in human HepG2 cells assessed as membrane blebbing upto 9 uM incubated for 48 hrs by phase contrast microscopy; assay type: functional, cell-based; details: dose microM <=9, time 48.0 hrs
[20] = test system: HepG2; test: Induction ROS generation in human HepG2 cells assessed as intracellular ROS level measured after 1 hrs by H2DCF-DA probe based flow cytometry (reference value: 5.05%); assay type: functional
[21] = test system: Hep 3B2; test: Induction of apoptosis in human Hep3B cells assessed as late apoptotic cells at 9 uM incubated for 48 hrs by AnnexinV-FITC and propidium iodide staining based flow cytometry analysis (reference value: 3.32%); assay type: functional
[22] = test system: Hep 3B2; test: Induction of apoptosis in human Hep3B cells assessed as late apoptotic cells at 3 uM incubated for 48 hrs by AnnexinV-FITC and propidium iodide staining based flow cytometry analysis (reference value: 3.32%); assay type: functional
[23] = test system: HepG2; test: Induction of cell cycle arrest in human HepG2 cells assessed as accumulation at G2/M phase by PI-staining based flow cytometric analysis; assay type: functional
[24] = test system: Hep 3B2; test: Induction ROS generation in human Hep3B cells assessed as intracellular ROS level measured after 2 hrs by H2DCF-DA probe based flow cytometry (reference value: 4.24 %); assay type: functional
[25] = test system: HepG2; test: Induction of apoptosis in human HepG2 cells assessed as nuclear condensation at 3 to 9 uM incubated for 48 hrs by Hoechst 33258 staining based fluorescence microscopy analysis; assay type: functional, cell-based; details: dose 3-9 µM
[26] = test system: Hep 3B2; test: Induction of mitochondrial membrane potential loss in human Hep3B cells measured after 48 hrs by JC-1 staining based flow cytometry analysis; assay type: functional, cell-based; details: dose 3-9 µM
[27] = test system: HepG2; test: Induction of apoptosis in human HepG2 cells assessed as increase in FADD level measured by western blot analysis; assay type: functional, cell-based; details: dose 3-9 µM
[28] = test system: HepG2; test: Induction of apoptosis in human HepG2 cells assessed as late apoptotic cells at 3 uM incubated for 48 hrs by AnnexinV-FITC and propidium iodide staining based flow cytometry analysis (reference value: 2.46%); assay type: functional
[29] = test system: Hep 3B2; test: Induction of autophagy in human Hep3B cells at 3 uM by MDC staining based flow cytometry analysis (reference value: 3.52%); assay type: functional
[30] = test system: Hep 3B2; test: Anti-hepatoma activity against human Hep3B cells assessed as cell growth inhibition by MTT assay; assay type: functional, cell-based
[31] = test system: HepG2; test: Induction of apoptosis in human HepG2 cells assessed as increase in Bax level at 3 to 9 uM measured by western blot analysis; assay type: functional, cell-based; details: dose 3-9 µM
[32] = test system: Hep 3B2; test: Induction of apoptosis in human Hep3B cells assessed as cell shrinkage upto 9 uM incubated for 48 hrs by phase contrast microscopy; assay type: functional, cell-based; details: dose microM <=9, time 48.0 hrs
[33] = test system: Hep 3B2; test: Induction of apoptosis in human Hep3B cells assessed as nuclear fragmentation at 3 to 9 uM incubated for 48 hrs by Hoechst 33258 staining based fluorescence microscopy analysis; assay type: functional, cell-based; details: dose 3-9 µM
[34] = test system: HepG2; test: Induction of apoptosis in human HepG2 cells assessed as nuclear fragmentation at 3 to 9 uM incubated for 48 hrs by Hoechst 33258 staining based fluorescence microscopy analysis; assay type: functional, cell-based; details: dose 3-9 µM
[35] = test system: HepG2; test: Induction ROS generation in human HepG2 cells assessed as intracellular ROS level measured after 2 hrs by H2DCF-DA probe based flow cytometry (reference value: 5.05%); assay type: functional
[36] = test system: HepG2; test: Induction of apoptosis in human HepG2 cells assessed as late apoptotic cells at 9 uM incubated for 48 hrs by AnnexinV-FITC and propidium iodide staining based flow cytometry analysis (reference value: 2.46%); assay type: functional
[37] = test system: HepG2; test: Induction of apoptosis in human HepG2 cells assessed as early apoptotic cells at 3 uM incubated for 48 hrs by AnnexinV-FITC and propidium iodide staining based flow cytometry analysis (reference value: 2.45%); assay type: functional
[38] = test system: HepG2; test: Induction of apoptosis in human HepG2 cells assessed as early apoptotic cells at 6 uM incubated for 48 hrs by AnnexinV-FITC and propidium iodide staining based flow cytometry analysis (reference value: 2.45%); assay type: functional
[39] = test system: Hep 3B2; test: Induction of autophagy in human Hep3B cells at 9 uM by MDC staining based flow cytometry analysis (reference value: 3.52%); assay type: functional
[40] = test system: HepG2; test: Activation of p-38 phosphorylation in human HepG2 cells by Western blot analysis; assay type: cell-based; details: filed as activator, dose 3-9 µM
[41] = test system: HepG2; test: Induction of autophagy in human HepG2 cells at 3 uM by MDC staining based flow cytometry analysis (reference value: 4.46%); assay type: functional
[42] = test system: Hep 3B2; test: Induction of apoptosis in human Hep3B cells assessed as early apoptotic cells at 3 uM incubated for 48 hrs by AnnexinV-FITC and propidium iodide staining based flow cytometry analysis (reference value: 3.05%); assay type: functional
[43] = test system: Hep 3B2; test: Induction of apoptosis in human Hep3B cells assessed as membrane blebbing upto 9 uM incubated for 48 hrs by phase contrast microscopy; assay type: functional, cell-based; details: dose microM <=9, time 48.0 hrs
[44] = test system: HepG2; test: Induction of apoptosis in human HepG2 cells assessed as increase in cleaved caspase-3 activity measured by western blot analysis; assay type: functional, cell-based; details: dose 3-9 µM
[45] = test system: Hep 3B2; test: Induction of apoptosis in human Hep3B cells assessed as early apoptotic cells at 9 uM incubated for 48 hrs by AnnexinV-FITC and propidium iodide staining based flow cytometry analysis (reference value: 3.05%); assay type: functional
[46] = test system: HepG2; test: Induction of apoptosis in human HepG2 cells assessed as late apoptotic cells at 6 uM incubated for 48 hrs by AnnexinV-FITC and propidium iodide staining based flow cytometry analysis (reference value: 2.46%); assay type: functional
[47] = test system: Hep 3B2; test: Induction of autophagy in human Hep3B cells at 6 uM by MDC staining based flow cytometry analysis (reference value: 3.52%); assay type: functional
[48] = test system: HepG2; test: Induction of apoptosis in human HepG2 cells assessed as early apoptotic cells at 9 uM incubated for 48 hrs by AnnexinV-FITC and propidium iodide staining based flow cytometry analysis (reference value: 2.45%); assay type: functional
[49] = test system: HepG2; test: Induction of apoptosis in human HepG2 cells assessed as decrease in Bcl-2 level measured by western blot analysis; assay type: functional, cell-based; details: dose 3-9 µM
[50] = test system: Hep 3B2; test: Induction of apoptosis in human Hep3B cells assessed as early apoptotic cells at 6 uM incubated for 48 hrs by AnnexinV-FITC and propidium iodide staining based flow cytometry analysis (reference value: 3.05%); assay type: functional
[51] = test system: Hep 3B2; test: Induction ROS generation in human Hep3B cells assessed as intracellular ROS level measured after 1 hrs by H2DCF-DA probe based flow cytometry (reference value: 4.24 %); assay type: functional
[52] = test system: Hep 3B2; test: Induction of apoptosis in human Hep3B cells assessed as late apoptotic cells at 6 uM incubated for 48 hrs by AnnexinV-FITC and propidium iodide staining based flow cytometry analysis (reference value: 3.32%); assay type: functional

`C=C(C)C(=O)O[C@H]1CC2=C[C@@H](C[C@@]3(C)O[C@H]3[C@H]3OC(=O)C(=C)[C@@H]31)OC2=O` was tested, and the Activity [1] was “Dose-dependent effect”, the Activity [2] was “Dose-dependent effect” and the Activity [3] was “Active”. It also gave an IC50 [4] of 2.83 µM, an Activity [5] of 28.9% and an Activity [6] of 19.9%. For the same compound, the Activity [7] was “Active”, the Activity [8] was 19.5% and the Activity [9] was 6.58%. For the same compound, the Activity [10] was “Dose-dependent effect”, the Activity [11] was “Active” and the Activity [12] was 5.04%. The Activity [13] was 28.2%, the Activity [14] was “Dose-dependent effect” and the Activity [15] was “Dose-dependent effect”. For the same compound, the Activity [16] was “Active”, the Activity [17] was 22.8% and the Activity [18] was 65.9%. The Activity [19] was “Active”, the Activity [20] was 14.6% and the Activity [21] was 31.9%. For the same compound, the Activity [22] was 5.56%, the Activity [23] was “Active” and the Activity [24] was 7.42%. The Activity [25] was “Active”, the Activity [26] was “Dose-dependent effect” and the Activity [27] was “Dose-dependent effect”. The Activity [28] was 4.56%, the Activity [29] was 15.7% and the IC50 [30] was 1.98 µM. The Activity [31] was “Active”, the Activity [32] was “Active” and the Activity [33] was “Active”. The Activity [34] was “Active”, the Activity [35] was 13.1% and the Activity [36] was 29.1%. It also gave an Activity [37] of 14.9%, an Activity [38] of 33.7% and an Activity [39] of 69.6%. The Activity [40] was “Dose-dependent effect”, the Activity [41] was 9.52% and the Activity [42] was 5.14%. The Activity [43] was “Active”, the Activity [44] was “Dose-dependent effect” and the Activity [45] was 15.5%. It also gave an Activity [46] of 13.2%, an Activity [47] of 39.2% and an Activity [48] of 37.8%. The Activity [49] was “Dose-dependent effect”, the Activity [50] was 18.2% and the Activity [51] was 9.85%. It also gave an Activity [52] of 11.9%.
With `C=C(C)C(=O)OCC1=C2[C@@H](O)CC3=C[C@@H](C/C(C)=C/[C@H]2OC1=O)OC3=O` the IC50 [4] was over 20 µM and the IC50 [30] was over 20 µM.
`C=C(C)C(=O)O[C@H]1CC2=C[C@H](C/C(C)=C/[C@H]3OC(=O)[C@@H](C)C13)OC2=O` (stereo partly drawn) showed an IC50 [4] of over 20 µM and an IC50 [30] of over 20 µM.
`C/C=C(\C)C(=O)O[C@H]1CC2=C[C@@H](C/C(C)=C/[C@H]3OC(=O)C(CO)=C13)OC2=O` showed an IC50 [4] of over 20 µM and an IC50 [30] of over 20 µM.
